Results: patent publication US11963946B2, “MDMA treatment to enhance acute emotional effects profile of LSD, psilocybin, or other psychedelics” (Universitätsspital Basel, priority 2020, dated 2024)
“And” between values parts separate entries of the source, which are not always exact repeats. Equal values may be shown once. Read-outs that look alike come from different tables or passages of the source.

Key:
5-HT transporter (SERT) = 5-HT transporter (SERT) (Homo sapiens, UniProt P31645); details: Rickli et al., 2016; cited from earlier work
Sequence of 5-HT transporter (SERT) (P31645 whole entry, species assumed): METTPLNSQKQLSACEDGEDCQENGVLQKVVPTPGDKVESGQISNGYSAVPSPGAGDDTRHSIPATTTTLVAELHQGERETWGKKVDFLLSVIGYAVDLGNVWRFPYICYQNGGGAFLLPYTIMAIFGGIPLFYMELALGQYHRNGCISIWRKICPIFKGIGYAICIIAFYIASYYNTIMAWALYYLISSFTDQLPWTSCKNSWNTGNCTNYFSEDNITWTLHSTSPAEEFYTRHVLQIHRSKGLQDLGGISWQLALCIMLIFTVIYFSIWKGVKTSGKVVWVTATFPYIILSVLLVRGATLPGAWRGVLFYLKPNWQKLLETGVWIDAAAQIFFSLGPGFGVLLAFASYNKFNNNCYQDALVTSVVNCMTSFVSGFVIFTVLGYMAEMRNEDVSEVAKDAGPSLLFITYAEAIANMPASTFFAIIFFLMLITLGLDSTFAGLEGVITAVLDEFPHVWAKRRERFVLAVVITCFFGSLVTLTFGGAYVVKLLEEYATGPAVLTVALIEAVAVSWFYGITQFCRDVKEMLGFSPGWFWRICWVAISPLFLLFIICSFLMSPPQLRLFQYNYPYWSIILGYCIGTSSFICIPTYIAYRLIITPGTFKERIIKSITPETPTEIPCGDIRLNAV

[1] = test system: serotonin 5-HT1 receptors; details: Rickli et al., 2016; cited from earlier work
D2 receptors = D2 receptors (Homo sapiens, UniProt P14416); details: cited from earlier work
Sequence of D2 receptors (P14416 whole entry): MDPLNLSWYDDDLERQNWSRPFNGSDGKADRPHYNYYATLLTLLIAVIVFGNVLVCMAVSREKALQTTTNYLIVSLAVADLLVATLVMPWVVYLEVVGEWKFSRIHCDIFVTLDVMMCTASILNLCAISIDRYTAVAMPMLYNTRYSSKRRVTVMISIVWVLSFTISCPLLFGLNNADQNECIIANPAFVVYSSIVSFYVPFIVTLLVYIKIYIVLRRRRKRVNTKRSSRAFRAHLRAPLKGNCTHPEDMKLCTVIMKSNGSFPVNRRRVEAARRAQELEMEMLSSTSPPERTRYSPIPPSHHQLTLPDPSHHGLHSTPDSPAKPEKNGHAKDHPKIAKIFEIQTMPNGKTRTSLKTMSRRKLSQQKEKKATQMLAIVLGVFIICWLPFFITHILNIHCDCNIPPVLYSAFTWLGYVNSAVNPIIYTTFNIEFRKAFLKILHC

D1-3 receptors = details: Rickli et al., 2016; cited from earlier work
healthy humans = details: cited from earlier work
5-HT2A receptor = 5-HT2A receptor (Homo sapiens, UniProt P28223); details: Rickli et al., 2016; cited from earlier work
Sequence of 5-HT2A receptor (P28223 whole entry): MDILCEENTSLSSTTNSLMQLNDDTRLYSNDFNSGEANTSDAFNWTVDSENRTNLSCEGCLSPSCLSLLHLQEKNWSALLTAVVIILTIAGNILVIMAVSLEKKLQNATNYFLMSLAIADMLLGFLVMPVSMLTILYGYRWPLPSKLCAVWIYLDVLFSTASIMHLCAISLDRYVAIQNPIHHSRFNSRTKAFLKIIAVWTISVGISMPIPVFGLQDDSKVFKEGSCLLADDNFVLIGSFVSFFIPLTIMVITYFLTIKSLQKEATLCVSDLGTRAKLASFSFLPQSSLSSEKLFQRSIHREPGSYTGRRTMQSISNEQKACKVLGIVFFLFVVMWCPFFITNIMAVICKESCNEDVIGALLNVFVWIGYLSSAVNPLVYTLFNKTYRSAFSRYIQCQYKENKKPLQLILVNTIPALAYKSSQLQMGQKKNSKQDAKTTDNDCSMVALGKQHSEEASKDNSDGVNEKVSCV

healthy human subjects [2] = test: Subjective effects Visual Analog Scales (VAS), LSD-MDMA clinical study; details: for peak subjective effects ratings of any drug effect (VAS): oral, mean of two healthy subjects; for bad drug effects (VAS): FIG. 3A; for ratings of being talkative (VAS): FIG. 8A; for wanting to be alone / with other people (VAS): FIGS. 10A and 10B
healthy human subjects [3] = test: Adverse effects, list of complaints (LC) score, LSD-MDMA clinical study; details: 0.1 mg LSD, 100 mg MDMA or both; mean of two subjects; placebo 5
healthy human subjects [4] = details: two subjects; FIGS. 12, 13
humans = details: cited from earlier work
[5] = 0.1 mg LSD, 100 mg MDMA or both, FIG. 2A
[6] = 0.1 mg LSD, 100 mg MDMA or both, two subjects
[7] = oral administration (Vizeli et al., 2017)

CN(C)CCc1c[nH]c2cccc(O)c12 [psilocin]
interaction with the SERT (5-HT transporter (SERT)): inhibits the 5-HT transporter
agonist potency at serotonin 5-HT1 receptors [1]: potent agonists

COc1cc(CCN)cc(OC)c1OC [mescaline]
affinity for D2 receptors (D2 receptors): no affinity
agonist potency at serotonin 5-HT1 receptors [1]: low potency

CCN(CC)C(=O)[C@@H]1C=C2c3cccc4[nH]cc(c34)C[C@H]2N(C)C1 [LSD, lysergic acid diethylamide]
interaction with the SERT (5-HT transporter (SERT)): does not interact with the SERT
agonist potency at serotonin 5-HT1 receptors [1]: potent agonists
stimulation of D1-3 receptors (D1-3 receptors): stimulates D1-3 receptors
time of onset of the subjective response, any drug effect VAS (mean±SD) (healthy humans; 0.1 mg LSD (Holze et al., 2019a), range 0.3-1.0): 0.7 ± 0.2 h
duration of subjective effects (mean±SD) (healthy humans; 0.1 mg LSD (Holze et al., 2019a), range 5.3-12.8): 8.5 ± 2.0 h
time of offset of the subjective response, any drug effect VAS (mean±SD) (healthy humans; 0.1 mg LSD (Holze et al., 2019a), range 6.0-13.2): 9.1 ± 2.0 h
subjects with bad drug effects (50% or more on a 0-100% scale at any time point) (healthy humans; 0.1 mg LSD, 3 of 24 subjects (Dolder et al., 2017)): 12.5%
subjects with transient bad drug effects (healthy humans; 0.1 mg LSD, 7 of 24 subjects (Holze et al., 2019a)): 29%
duration of LSD effects (healthy humans; 0.1 mg dose (Dolder et al., 2017), range 5-14): 8.2 ± 2.1 h
subjects with bad drug effects (50% or more on a 0-100% scale at any time point) (healthy humans; 0.2 mg LSD, 9 of 16 subjects (Dolder et al., 2017)): 56%
subjects with marked anxiety (healthy humans; 0.2 mg LSD, sixteen healthy humans (Schmid et al., 2015)): two
duration of LSD effects (healthy humans; 0.2 mg dose (Dolder et al., 2017), range 7-19.5): 11.6 ± 1.7 h
subjective response to LSD compared to MDMA (healthy humans; LSD 0.1 mg vs MDMA 125 mg (Holze et al., 2019b)): clearly more pronounced
time to the subjective peak effect (healthy humans; LSD (Holze et al., 2019a), range 1.6-4.3): 2.5 ± 0.6 h and 2.5 h
start of LSD effect, on average (healthy humans; oral administration): 42 min
time after administration at which anxiety mostly occurs (peak effects) (healthy humans; oral dosing formulation of LSD): 1 to 4 h
stimulation of the 5-HT2A receptor (5-HT2A receptor): potently stimulates
peak subjective effects ratings of any drug effect (VAS) (healthy human subjects [2]; [5]): comparable peak subjective effects ratings
duration of any drug effect (VAS) (healthy human subjects [2]; 0.1 mg LSD, 100 mg MDMA or both, two subjects, FIG. 2A): lasted longer than those of MDMA
good drug effects duration (VAS) (healthy human subjects [2]; 0.1 mg LSD, 100 mg MDMA or both, two subjects, FIG. 2B): lasted longer
bad drug effects (VAS) (healthy human subjects [2]; [6]): minor subjective bad drug effects
anxiety (VAS) (healthy human subjects [2]; 0.1 mg LSD, 100 mg MDMA or both, two subjects, FIG. 3B): moderate anxiety at drug effect onset
nausea (VAS) (healthy human subjects [2]; 0.1 mg LSD, two subjects, FIG. 4B): moderate nausea at drug effect onset
ratings of openness (VAS) (healthy human subjects [2]; two subjects): lower increases in openness
changes in visual perception (VAS) (healthy human subjects [2]; two subjects, FIG. 5A): comparable changes in visual perception
synaesthesias (sounds influencing visual perception) (VAS) (healthy human subjects [2]; two subjects, FIG. 5B): comparable changes
changes in the perception of time (VAS) (healthy human subjects [2]; two subjects, FIG. 6A): comparable changes in the perception of time
ratings of being talkative (VAS) (healthy human subjects [2]; two subjects): reduces talkative
degree of intro or extroversion (VAS) (healthy human subjects [2]; two subjects, FIG. 11): no effect
wanting to be alone / with other people (VAS) (healthy human subjects [2]; two subjects): wanted to be with others and not alone
Total average LC scores (healthy human subjects [3]): 18
alterations of consciousness on the 5D-ASC main and subscales (healthy human subjects [4]): comparable degrees of alterations of consciousness

CNC(C)Cc1ccc2c(c1)OCO2 (stereo not shown) [MDMA, 3,4-methylenedioxymethamphetamine]
duration of the subjective effect (humans; MDMA (Vizeli et al., 2017)): 4.2 ± 1.3 h
onset of the MDMA effect (mean±SD) (humans; [7]): 33 ± 24 min and 33 min
time to peak effect after MDMA administration (humans; [7]): 1.6 ± 0.8 h and 1.6 h
peak subjective effects ratings of any drug effect (VAS) (healthy human subjects [2]; [5]): comparable peak subjective effects ratings
bad drug effects (VAS) (healthy human subjects [2]; [6]): moderately increased subjective bad drug effect ratings
ratings of openness (VAS) (healthy human subjects [2]; two subjects): increases ratings of openness
ratings of being talkative (VAS) (healthy human subjects [2]; two subjects): increases ratings of being talkative
ratings of trust (VAS) (healthy human subjects [2]; two subjects, FIG. 9A): increases feelings of trust
wanting to be alone / with other people (VAS) (healthy human subjects [2]; two subjects): wanted to be with others and not alone
Total average LC scores (healthy human subjects [3]): 12
